Read-outs that look alike come from different tables or passages of the source.
Key:
[1] = tested on: pUAS-1-driven EYFP expression in HEK293T cells transfected with GAL4- and VPR-fused PROTAC target protein / E3 ubiquitin ligase; assay: PROTAC-CID inducible EYFP gene activation, flow cytometry; assay type: cell-based, human; details: for Bottom (best-fit value) / Span (best-fit value) / Top (best-fit value): Table 4 nonlinear regression of EYFP activation; for Bottom (best-fit value) / Span (best-fit value) / Top (best-fit value) / Hillslope (best-fit value) / logEC50 (best-fit value) / EC50: FIG. 13A
Protocol: Fluorescence assay using flow cytometry analysis. Cells were treated with 0.05% Trpsin EDTA (Thermo Fisher Scientific no. 25300054) or TrypLE (Thermo Fisher Scientific no. 12605028) after transfection and centrifuged at 3000 g for 5 min. Supernatant was removed and the cell pellet was resuspended with 200 μL phosphate buffered saline (PBS) without calcium and magnesium (Thermo Fisher Scientific no. 10010023). Cells were transferred into 12×75 mm flow tubes (Global Scientific no. 110410). Cells were analyzed by MA900 flow cytometry (SONY). 405 nm laser (FL6 filter) was used for testing the BFP channel. 488 nm (FL1 filter) was used for testing the EYFP and GFP channel. Automated alignment using Automatic Setup Beads kit (SONY no. LE-B3001) is performed before running samples. In FIGS. 3A, 3B, and 17, experiments were performed under 2% FSC, 17% BSC, 24% FL1. In FIG. 18, experiments were performed under 2% FSC, 17% BSC, 27% FL1. All the other experiments were performed under 2% FSC, 17% BSC, 24% FL1 and 27% FL6. Flow cytometry data was processed and analyzed by FlowJo 10. Events were first gated with forward scatter-Area (FSC-A) and side scatter-Area (SSC-A) to select viable cells and remove the debris and dead cells. Cells were further gated with FSC-A and FSC-Height (FSC-H) for selecting single cells. The mean intensity of the reporter fluorescent protein (BFP and EYFP) in viable and single cell populations were calculated by FlowJo 10 as the mean of FL6-A and FL1-A. When calculating the fold change of relative fluorescence units (RFU), the relative fluorescence units of EYFP was calculated by dividing the mean of fluorescence intensity of EYFP with the mean of BFP fluorescence intensity for normalization as the following formula: […]
Next, the mean of the normalized relative fluorescence units of induced group were divided by the value of control group for calculating the fold change as the following formula: […]
Transfection and microscopy. HEK293T cells (American Type Culture Collection, no. CRL-3216) were cultured with high-glucose Dulbecco's modified Eagle's medium (DMEM) (Thermo Fisher Scientific no. 10569044) with 10% fetal bovine serum (FBS) (Thermo Fisher Scientific no. 10437028) and 1×penicillin-streptomycin (Thermo Fisher Scientific no. 15140122) at 37° C. with 5% CO2. Except for the data in FIGS. 3C, 3E, and 3H, cells were plated into 96 well plate (Corning no. 3598) and transfected by Polyethyleneimine Max (PEI Max) (Polysciences no. 24765-1). 1.5 μL PEI Max (1 mg/mL, pH=7.1) and 100 μl DMEM were mixed with plasmids to be slowly dropped into the cell medium after 30 mins of incubation. Medium was changed 12 hours post-transfection. The inductive small molecules, including Rapamycin (STEM CELL technologies no. 73362), dTAG-13 (TOCRIS no. 6605/5), dTAG^V-1 (TOCRIS no. 6744-5), dBRD9 (TOCRIS no. 6606/5), dTRIM24 (TOCRIS no. 6607/5), MZ1 (TOCRIS no. 6154/5), AT1 (TOCRIS no. 6356/5), TL13-12 (TOCRIS no. 6744/5), TL13-112 (TOCRIS no. 6745/5), dTAG-7 (TOCRIS no. 69125), ZXH3-26 (TOCRIS no. 6713/5) and ABA (GoldBio no. A-050-100), dissolved in Dimethyl sulfoxide (DMSO) (Sigma, no. D8418) were added. For the microscopy observation, the images were taken by Microscopy EVOS (Life Technologies) and processed by ImageJ (Schneider et al., 2012). If not otherwise noted, 60 ng of each plasmid were used for each sample.
Step-by-step fluorescence protein activation assay protocol. Reagents: • 1. PEI Max (Polysciences no. 24765-1) • 2. DMEM, high glucose, GlutaMAX™ Supplement, pyruvate (Thermo Fisher Scientific no. 10569044) • 3. Penicillin-Streptomycin (10,000 U/mL) (Thermo Fisher Scientific no. 15140122) • 4. Fetal Bovine Serum 500ML (FBS) (Thermo Fisher Scientific no. 10437028) • 5. TrypLE™ Express Enzyme (1×), phenol red (Thermo Fisher Scientific no. 12605068) • 6. PBS pH=7.4 (Thermo Fisher Scientific no. 10010023) • 7. Sony sorting chip […] for MA900 (SONY no. LE-C3210) • 8. Automatic Setup Beads kit (SONY no. LE-B3001) • 9. […]

[2] = tested on: pUAS-2-Fluc expression in HEK293T cells with cognate or non-cognate GAL4/VPR protein pairs; assay: Orthogonality analysis, Firefly luciferase (Fluc) luminescence; assay type: cell-based, human; details: seven different protein pairs, 2 days, FIGS. 2A and 14
Protocol: Luciferase luminescence intensity measurement. Before transfection, HEK293T cells were seeded in clear bottom 96 well assay plates (Corning no. 3610) with 100 μL DMEM with 10% FBS and 1× penicillin-streptomycin at 37° C. with 5% CO2. When cells reached 50% confluency, 1.5 μL PEI Max (1 mg/mL, pH=7.1) and 100 μL DMEM were mixed with 60 ng of each plasmid (GAL4 and VPR fused target protein or E3 ubiquitin ligase, pUAS-2-Fluc) for 30 min at room temperature. Mixture was transferred into cells gently. 12 h after transfection, medium was changed, and the inductive small molecules were supplied. 2-days post induction, 120 μL of medium was aspirated from each well containing 200 μL of medium, leaving 80 μL of medium per well, then treated with 40 μL of lysis buffer (500 mM DTT (Sigma no. D0632), 10 mM coenzyme A (RPI no. C95275), 100 mM ATP (Thermo Fisher Scientific no. R1441), 80 mg/mL D-luciferin (GoldBio no. LUCNA-100), Triton lysis buffer (0.1082 M Tris-HCl, 0.0419 M Tris-Base, 75 mM NaCl, 3 mM MgCl2)). Plate was shaken with 20 seconds in “Orbital” mode with frequency of 432 rpm and Amplitude of 1 mm to lysis the cells. Recording the luminescence by plate reader Infinite M200 (TECAN) with 1000 ms integration time using Megellan v1.7 (TECAN). Mean of luciferase luminescence relative light units (RLU) was calculated by the average of three biological replications. Normalized RLU were calculated by dividing RLU of the tested group with mean of RLU of DMSO treated control group for normalization: […]

[3] = Table 4 nonlinear regression, Prism 9 [Agonist] vs. response variable slope (four parameters), no unit in table (the source gives nM), read-out: EC50 (best-fit value)
[4] = dose-response, read-out: EC50 for gene activation

SMILES	grades of EYFP intensity ([1]; HEK293T transfected with GAL4-VHL, TRIM24^BD-VPR, BRD4^BD2-VPR and reporter plasmid, FIG. 2E: dTRIM24, MZ1 100 nM) [fold]	Bottom (best-fit value) [1]	Span (best-fit value) [1]	Top (best-fit value) [1]	Hillslope (best-fit value) ([1]; Table 4 nonlinear regression)	logEC50 (best-fit value) ([1]; Table 4 nonlinear regression)	EC50 [1, 3] [nM]	EC50 [1, 4] [nM]	orthogonality: Fluc activation with cognate vs non-cognate protein partners [2]
Cc1ncsc1-c1ccc(CNC(=O)[C@@H]2C[C@@H](O)CN2C(=O)[C@@H](NC(=O)COCCOCCOCCNC(=O)C[C@@H]2N=C(c3ccc(Cl)cc3)c3c(sc(C)c3C)-n3c(C)nnc32)C(C)(C)C)cc1 [MZ1]	13	1.416	319.6	321	1.728	1.51	32.4	32	interact with the same protein pairs
CC[C@H](C(=O)N1CCCC[C@H]1C(=O)O[C@H](CCc1ccc(OC)c(OC)c1)c1ccccc1OCC(=O)NCCCCCCOc1cccc2c1C(=O)N(C1CCC(=O)NC1=O)C2=O)c1cc(OC)c(OC)c(OC)c1 (some centres unmarked) [dTAG-13]		2.581	135.7	138.3	3.384	1.724	53	53	only activated Fluc expression in the cells transfected with plasmids containing GAL4-FKBP12^F36V (SEQ ID NO: 1) and CRBN-VPR (SEQ ID NO: 2) coding regions

Source: patent US20250382631A1, “PROTAC-CID SYSTEMS FOR USE IN MULTIPLEX GENE REGULATION” (William Marsh Rice University, priority 2022, published 2025)
